Key:
Format in all cases: in vivo
[1] = test system: blackgrass (Alopecurus myosuroides); experiment: Test C pre-/postemergence plant response
Procedure, shortened: (§1)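 Seeds are planted and sprayed preemergence, while established plants at the 1- to 4-leaf stage (2 to 18 cm) receive postemergence sprays of the same surfactant-containing, non-phytotoxic solvent formulation. After 15 to 25 days under controlled conditions, injury is scored visually from 0 (no effect) to 100 (complete control).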

[2] = test system: canarygrass (Phalaris minor); experiment: Test C pre-/postemergence plant response
Procedure, shortened: as §1

[3] = test system: pigweed (Amaranthus retroflexus); experiment: Test C pre-/postemergence plant response
Procedure, shortened: as §1

[4] = test system: wild mustard (Sinapis arvensis); experiment: Test C pre-/postemergence plant response
Procedure, shortened: as §1

[5] = test system: winter wheat (Triticum aestivum); experiment: Test C pre-/postemergence plant response
Procedure, shortened: as §1

[6] = test system: windgrass (Apera spica-venti); experiment: Test C pre-/postemergence plant response
Procedure, shortened: as §1

wild oat (Avena fatua) = experiment: Test C pre-/postemergence plant response
Procedure, shortened: as §1

[7] = test system: annual bluegrass (Poa annua); experiment: Test C pre-/postemergence plant response
Procedure, shortened: as §1

[8] = test system: spring barley (Hordeum vulgare); experiment: Test C pre-/postemergence plant response
Procedure, shortened: as §1

[9] = test system: downy bromegrass (Bromus tectorum); experiment: Test C pre-/postemergence plant response
Procedure, shortened: as §1

[10] = test system: green foxtail (Setaria viridis); experiment: Test C pre-/postemergence plant response
Procedure, shortened: as §1

[11] = test system: surinam grass (Brachiaria decumbens); experiment: Test B pre-/postemergence plant response; settings: for Surinam Grass plant response rating: 8 g ai/ha
Procedure, shortened: (§2)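 Preemergence and postemergence (plants 2-18 cm, 1- to 4-leaf stage) applications used test chemicals in a non-phytotoxic solvent with surfactant. Plants were held in a greenhouse 13 to 15 days, then rated visually against controls on a 0-100 scale (0 no effect, 100 complete control).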

[12] = test system: johnsongrass (Sorghum halepense); experiment: Test B pre-/postemergence plant response; settings: for Johnsongrass plant response rating: 8 g ai/ha
Procedure, shortened: as §2

[13] = Postemergence, 8 g ai/ha, scale 0 to 100, 0 no effect, 100 complete control
[14] = Postemergence, 16 g ai/ha, scale 0 to 100, 0 no effect, 100 complete control
[15] = Postemergence, 31 g ai/ha, scale 0 to 100, 0 no effect, 100 complete control
[16] = Postemergence, 62 g ai/ha, scale 0 to 100, 0 no effect, 100 complete control
[17] = Preemergence, 8 g ai/ha, scale 0 to 100 (0 no effect, 100 complete control)
[18] = Preemergence, 16 g ai/ha, scale 0 to 100 (0 no effect, 100 complete control)
[19] = Preemergence, 31 g ai/ha, scale 0 to 100 (0 no effect, 100 complete control)
[20] = Preemergence, 62 g ai/ha, scale 0 to 100, 0 no effect, 100 complete control
[21] = Postemergence, 16 g ai/ha, scale 0 to 100
[22] = Postemergence, 62 g ai/ha, scale 0 to 100
[23] = Preemergence, 31 g ai/ha, 0 to 100 scale, 0 no effect, 100 complete control
[24] = Preemergence, 62 g ai/ha, scale 0 to 100

CCc1cc(-c2ccc(F)cc2)nn1-c1c(O)cnn(C)c1=O [Compound 25]
30: Plant response rating, Johnsongrass [12, 22]
50: Plant response rating, Blackgrass [1, 18] | Plant response rating, Windgrass [6, 17] | Surinam Grass plant response rating ([11]; postemergence, 0-100 scale) | Surinam Grass plant response rating ([11]; Preemergence, scale 0 to 100)
35: Plant response rating, Blackgrass [1, 14] | Plant response rating, Canarygrass [2, 20] | Plant response rating, Windgrass [6, 15] | Plant response rating, Bluegrass [7, 18] | Plant response rating, Bromegrass, Downy [9, 20]
10: Plant response rating, Canarygrass [2, 19]
100: Plant response rating, Foxtail, Green [10, 19] | Plant response rating, Foxtail, Green [10, 20] | Plant response rating, Surinam Grass [11, 22] | Plant response rating, Surinam Grass [11, 24]
90: Plant response rating, Blackgrass [1, 15] | Plant response rating, Oat, Wild (wild oat (Avena fatua); [15])
75: Plant response rating, Blackgrass [1, 19] | Plant response rating, Blackgrass [1, 20] | Plant response rating, Windgrass [6, 18]
0: Plant response rating, Blackgrass [1, 17] | Plant response rating, Canarygrass [2, 13] | Plant response rating, Canarygrass [2, 14] | Plant response rating, Canarygrass [2, 15] | Plant response rating, Canarygrass [2, 17] | Plant response rating, Canarygrass [2, 18] | Plant response rating, Pigweed [3, 13] | Plant response rating, Pigweed [3, 14] | Plant response rating, Pigweed [3, 15] | Plant response rating, Pigweed [3, 17] | Plant response rating, Pigweed [3, 18] | Plant response rating, Pigweed [3, 19] | Plant response rating, Pigweed [3, 20] | Plant response rating, Mustard, Wild [4, 13] | Plant response rating, Mustard, Wild [4, 14] | Plant response rating, Mustard, Wild [4, 15] | Plant response rating, Mustard, Wild [4, 16] | Plant response rating, Mustard, Wild [4, 17] | Plant response rating, Mustard, Wild [4, 18] | Plant response rating, Mustard, Wild [4, 19] | Plant response rating, Wheat, Winter [5, 13] | Plant response rating, Wheat, Winter [5, 14] | Plant response rating, Wheat, Winter [5, 15] | Plant response rating, Wheat, Winter [5, 17] | Plant response rating, Wheat, Winter [5, 18] | Plant response rating, Wheat, Winter [5, 19] | Plant response rating, Wheat, Winter [5, 20] | Plant response rating, Windgrass [6, 13] | Plant response rating, Windgrass [6, 14] | Plant response rating, Oat, Wild (wild oat (Avena fatua); [13]) | Plant response rating, Bluegrass [7, 13] | Plant response rating, Bluegrass [7, 14] | Plant response rating, Bluegrass [7, 17] | Plant response rating, Barley, Spring [8, 13] | Plant response rating, Barley, Spring [8, 14] | Plant response rating, Barley, Spring [8, 15] | Plant response rating, Barley, Spring [8, 17] | Plant response rating, Barley, Spring [8, 18] | Plant response rating, Barley, Spring [8, 19] | Plant response rating, Barley, Spring [8, 20] | Plant response rating, Bromegrass, Downy [9, 13] | Plant response rating, Bromegrass, Downy [9, 14] | Plant response rating, Bromegrass, Downy [9, 15] | Johnsongrass plant response rating ([12]; postemergence, 0-100 scale) | Plant response rating, Johnsongrass [12, 21] | Plant response rating, Johnsongrass [12, 15] | Plant response rating, Johnsongrass [12, 18] | Plant response rating, Johnsongrass [12, 23] | Plant response rating, Johnsongrass [12, 24] | Johnsongrass plant response rating ([12]; Preemergence, scale 0 to 100)
95: Plant response rating, Oat, Wild (wild oat (Avena fatua); [16]) | Plant response rating, Foxtail, Green [10, 15] | Plant response rating, Surinam Grass [11, 15]
98: Plant response rating, Blackgrass [1, 16] | Plant response rating, Foxtail, Green [10, 16]
5: Plant response rating, Blackgrass [1, 13]
25: Plant response rating, Foxtail, Green [10, 18]
40: Plant response rating, Canarygrass [2, 16] | Plant response rating, Oat, Wild (wild oat (Avena fatua); [19]) | Plant response rating, Oat, Wild (wild oat (Avena fatua); [20]) | Plant response rating, Bluegrass [7, 19] | Plant response rating, Bluegrass [7, 20]
85: Plant response rating, Surinam Grass [11, 18] | Plant response rating, Surinam Grass [11, 23]
60: Plant response rating, Windgrass [6, 16] | Plant response rating, Surinam Grass [11, 21]
20: Plant response rating, Pigweed [3, 16] | Plant response rating, Bromegrass, Downy [9, 16] | Plant response rating, Bromegrass, Downy [9, 17] | Plant response rating, Bromegrass, Downy [9, 18] | Plant response rating, Bromegrass, Downy [9, 19]
70: Plant response rating, Foxtail, Green [10, 13]
80: Plant response rating, Foxtail, Green [10, 14]
15: Plant response rating, Oat, Wild (wild oat (Avena fatua); [14]) | Plant response rating, Oat, Wild (wild oat (Avena fatua); [17]) | Plant response rating, Oat, Wild (wild oat (Avena fatua); [18]) | Plant response rating, Bluegrass [7, 15] | Plant response rating, Bluegrass [7, 16] | Plant response rating, Foxtail, Green [10, 17]

Reference: patent US20100267561A1, “HERBICIDAL PYRIDAZINONE DERIVATIVES” (priority 2007, published 2010)
